Laboratory results: ChEMBL document CHEMBL1157143, “Modeling and synthesis of novel tight-binding inhibitors of cytochrome P450 2C9” (Bioorg Med Chem, 2008)

What was measured:
Cytochrome P450 2C9 = Cytochrome P450 2C9 (Homo sapiens, UniProt P11712); assay: Binding affinity to CYP2C9
[1] = Dissociation constant, pKa of the compound

Sequence of Cytochrome P450 2C9 (P11712 whole entry): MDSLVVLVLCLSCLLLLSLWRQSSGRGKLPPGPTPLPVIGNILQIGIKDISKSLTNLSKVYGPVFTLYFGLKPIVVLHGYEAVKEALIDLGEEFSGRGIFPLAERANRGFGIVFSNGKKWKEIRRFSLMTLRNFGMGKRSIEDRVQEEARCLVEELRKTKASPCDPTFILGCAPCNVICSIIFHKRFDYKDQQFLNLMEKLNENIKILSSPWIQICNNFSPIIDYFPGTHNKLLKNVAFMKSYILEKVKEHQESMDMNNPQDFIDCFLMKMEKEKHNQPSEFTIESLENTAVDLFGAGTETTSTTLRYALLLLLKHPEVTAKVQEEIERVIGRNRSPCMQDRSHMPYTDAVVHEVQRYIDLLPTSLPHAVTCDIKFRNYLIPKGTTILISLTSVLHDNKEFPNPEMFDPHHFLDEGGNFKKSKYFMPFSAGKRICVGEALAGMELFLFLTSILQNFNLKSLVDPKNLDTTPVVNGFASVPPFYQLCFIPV

Compound	Ki (Cytochrome P450 2C9) [µM]	pKa [1]
COc1ccc(C(=O)c2c(C)oc3ccccc3c2=O)cc1	5.93	–
CCCc1oc2ccccc2c(=O)c1C(=O)c1cc(I)c(O)c(I)c1	0.0042	4.89
CCc1oc2ccccc2c(=O)c1C(=O)c1cc(I)c(O)c(I)c1	0.023	4.89
CCCc1oc2ccccc2c(=O)c1C(=O)c1cc(I)c(OC)c(I)c1	0.0443	–
Cc1oc2ccccc2c(=O)c1C(=O)c1cc(I)c(O)c(I)c1	0.041	4.89
CCCc1oc2ccccc2c(=O)c1C(=O)c1ccc(OC)cc1	3.12	–
CCc1oc2ccccc2c(=O)c1C(=O)c1ccncc1	4.87	–
CCc1oc2ccccc2c(=O)c1C(=O)c1ccc(OC)cc1	6.48	–
Cc1oc2ccccc2c(=O)c1C(=O)c1ccc(O)cc1	6.74	7.74
CCc1oc2ccccc2c(=O)c1C(=O)c1ccc(O)cc1	1.42	7.74
CCc1oc2ccccc2c(=O)c1C(=O)c1cc(Br)c(O)c(Br)c1	–	4.72
CCCc1oc2ccccc2c(=O)c1C(=O)c1ccc(O)cc1	0.656	7.74
